Assay results taken from patent publication US7412279B2, “Systems and methods for targeted magnetic resonance imaging of the vascular system” (Epix Pharmaceuticals, Inc., priority 2001, dated 2008).

Experiments:
thrombus [1] = assay: In vivo MRI of a jugular vein thrombus in the guinea pig, extracellular vascular agent followed by targeted agent; set-up: species or system guinea pig (Hartley male); details: vascular MR image
Method: A 600 g guinea pig (Hartley male) was anaesthetized with a cocktail of Ketamine (50 mg/kg), Aceapromazine (2.5 mg/kg), and Rompon (5 mg/kg), and anesthesia maintained with sodium pentobarbital (approx.35 mg/kg as needed). An incision was made in the throat and one of the jugular veins was isolated. A 1 cm section of the jugular vein was isolated with vascular clamps. Freshly drawn blood from the animal (50 μL) was mixed with human thrombin (50 uL, 4 units) and injected into the clamped segment of the vein. Four minutes after injection, the clamps were removed and the thrombus was allowed to age for 30 minutes.
The animal was placed inside a General Electric Signa LxCVi 1.5 tesla scanner and imaged using a 3D RF spoiled gradient echo sequence (SPGR) with the following parameters TR=22 ms, TE=3.1 ms, flip angle=40 degree, field of view=8 cm, acquisition bandwith=31.25 kHz. After one scan, an extracellular vascular MRI contrast agent, GdDTPA (Magnevist®), 100 μmol/kg, was injected via a catheter in the carotid artery. The image sequence was repeated 5 times over the next 30 minutes to acquire the vascular MRI data set. […]

thrombus [2] = assay: In vivo protocol: vascular agent followed by targeted agent, guinea pig jugular vein thrombus; set-up: species or system guinea pig (Hartley male); details: Example 1, 100 μmol/kg
Method: One procedure for in vivo imaging of a stationary target within the vascular system (e.g., a thrombus) with a vascular agent (e.g., an extracellular contrast agent or a blood pool agent), and a targeted contrast agent is as follows: A 600 g guinea pig (Hartley male) is anaesthetized. An incision is made in the throat and one of the jugular veins is isolated. A 1 cm section of the jugular vein is isolated with vascular clamps. Freshly drawn blood from the animal (50 μL) is mixed with human thrombin (50 μL, 4 units) and injected into the clamped segment of the vein. Four minutes after injection, the clamps are removed and the thrombus is allowed to age for 30 minutes. GdDTPA (Magnevist®), 100 μmol/kg, an extracellular contrast agent, is injected and the throat area of the guinea pig is imaged using the following pulse sequence on a GE Medical Systems 1.5T MRI: Tl-weighted SPGR, TE=3.1, TR=22, flip angle=40°. […] After 30 minutes, GdDTPA has cleared from the blood and a stationary target (thrombus) targeted MRI agent is injected at a dose of 6 μmol/kg. […]

thrombus [3] = assay: In vivo MRI of thrombi in the rabbit carotid artery (crush injury) and jugular vein; set-up: species or system New Zealand White rabbit
Method: A 2.5 kg female New Zealand White rabbit was anesthetized with a cocktail of Ketamine (50 mg/kg), Aceapromazine (2.5 mg/kg), and Rompon (5 mg/kg), and anesthesia maintained with sodium pentobarbital (approx.35 mg/kg as needed). An i.v. catheter (24 g) was placed into the ear vein and the ear artery. The jugular vein and carotid artery were isolated. A stenosis was created in the carotid artery by placing an 18 g needle on top of the vessel and then suturing it into place with 3-0 suture. The needle was then removed. A 5 mm portion of the artery was then segmented off distally to the stenosis with microvascular clips. The artery was crushed twice along the 5 mm section. The proximal vascular clip was released to allow blood flow into the section for circa 3 sec. The clip was reapplied and the artery was crushed twice again along the 5 mm section. After 4 minutes, the clips were removed. A 5 mm segment of the jugular vein was isolated with microvascular clips. A thrombus was created by injecting 100 μL of a 3.7 units thrombin, 0.06 M CaCl2, rabbit whole blood mixture. After 4 minutes, the clips were removed.
The thrombi were allowed to age for 50 minutes. A 1.0 mL solution of a 5 mM targeted contrast agent (Structure III, 2 μmol/kg) was administered via the ear vein. […]

Molecule | enhancement of the vascular system (thrombus [1]; Example 10, 100 μmol/kg via carotid artery catheter) | enhancement of the thrombus (thrombus [1]; Example 10, 100 μmol/kg) | enhancement of the thrombus (thrombus [2]) | enhancement of the vasculature (thrombus [2]; immediately after injection) | visibility of blood vessels (carotid arteries, jugular veins) in MIP (thrombus [3]; Example 6, 80 μmol Gd/kg, image acquired immediately after injection) | signal intensity of both the blood and thrombus (thrombus [3]; Example 9, 80 μmol Gd/kg, injected 80 minutes after the targeted agent)
O=C([O-])CN(CCN(CC(=O)[O-])CC(=O)O)CCN(CC(=O)[O-])CC(=O)O.[Gd+3] [GdDTPA] | 4 fold | no observable enhancement | no enhancement | some enhancement | – | –
Gd-DTPA-BSA | – | – | – | – | readily visible | increased dramatically
